According to ChEMBL document CHEMBL5252648, “Design, synthesis and bioactivity evaluation of a series of quinazolinone derivatives as potent PI3Kγ antagonist” (Bioorg Med Chem, 2023):

Tests used:
[1] = molecular target: T1, Phosphatidylinositol 4,5-bisphosphate 3-kinase catalytic subunit delta isoform (Homo sapiens) (UniProt O00329); experiment: Antagonist activity at PI3Kdelta (unknown origin) assessed as inhibition rate at 20 nM using PIP2 as substrate in presence of ATP incubated for 30 to 60 mins by ADP-glo based luminescence assay relative to control; settings: time 30-60 min
T1 sequence (whole entry): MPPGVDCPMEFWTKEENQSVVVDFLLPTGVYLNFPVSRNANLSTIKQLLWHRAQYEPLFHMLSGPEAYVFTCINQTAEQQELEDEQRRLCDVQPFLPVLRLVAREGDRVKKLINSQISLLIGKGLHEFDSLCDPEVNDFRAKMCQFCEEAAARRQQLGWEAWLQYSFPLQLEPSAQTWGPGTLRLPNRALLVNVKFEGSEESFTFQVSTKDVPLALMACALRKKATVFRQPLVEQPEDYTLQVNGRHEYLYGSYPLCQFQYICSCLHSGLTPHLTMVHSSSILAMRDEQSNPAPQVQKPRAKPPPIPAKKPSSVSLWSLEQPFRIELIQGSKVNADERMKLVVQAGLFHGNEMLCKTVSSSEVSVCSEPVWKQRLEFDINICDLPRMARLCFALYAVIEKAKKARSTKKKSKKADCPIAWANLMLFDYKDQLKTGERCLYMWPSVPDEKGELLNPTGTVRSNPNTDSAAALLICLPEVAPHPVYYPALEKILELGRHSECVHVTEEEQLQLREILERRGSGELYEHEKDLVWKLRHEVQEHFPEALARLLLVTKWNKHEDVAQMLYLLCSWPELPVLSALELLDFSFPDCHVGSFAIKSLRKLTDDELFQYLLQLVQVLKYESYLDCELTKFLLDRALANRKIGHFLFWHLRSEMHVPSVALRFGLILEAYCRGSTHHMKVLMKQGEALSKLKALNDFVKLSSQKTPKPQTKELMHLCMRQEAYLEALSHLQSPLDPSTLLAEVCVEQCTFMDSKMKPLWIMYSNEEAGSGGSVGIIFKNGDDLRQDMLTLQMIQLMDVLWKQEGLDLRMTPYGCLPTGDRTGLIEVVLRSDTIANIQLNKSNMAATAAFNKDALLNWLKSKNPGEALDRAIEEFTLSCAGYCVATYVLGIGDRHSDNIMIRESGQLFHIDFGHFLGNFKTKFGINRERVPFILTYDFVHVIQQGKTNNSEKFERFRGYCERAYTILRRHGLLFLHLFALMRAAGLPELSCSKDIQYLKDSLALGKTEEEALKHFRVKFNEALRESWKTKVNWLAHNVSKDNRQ

[2] = molecular target: Phosphatidylinositol 4,5-bisphosphate 3-kinase catalytic subunit gamma isoform (Homo sapiens, UniProt P48736); experiment: Antagonist activity at PI3Kgamma (unknown origin) assessed as inhibition rate at 20 nM using PIP2 as substrate in presence of ATP incubated for 30 to 60 mins by ADP-glo based luminescence assay relative to control; settings: time 30-60 min
Chain of Phosphatidylinositol 4,5-bisphosphate 3-kinase catalytic subunit gamma isoform (P48736 whole entry, looked up, canonical isoform): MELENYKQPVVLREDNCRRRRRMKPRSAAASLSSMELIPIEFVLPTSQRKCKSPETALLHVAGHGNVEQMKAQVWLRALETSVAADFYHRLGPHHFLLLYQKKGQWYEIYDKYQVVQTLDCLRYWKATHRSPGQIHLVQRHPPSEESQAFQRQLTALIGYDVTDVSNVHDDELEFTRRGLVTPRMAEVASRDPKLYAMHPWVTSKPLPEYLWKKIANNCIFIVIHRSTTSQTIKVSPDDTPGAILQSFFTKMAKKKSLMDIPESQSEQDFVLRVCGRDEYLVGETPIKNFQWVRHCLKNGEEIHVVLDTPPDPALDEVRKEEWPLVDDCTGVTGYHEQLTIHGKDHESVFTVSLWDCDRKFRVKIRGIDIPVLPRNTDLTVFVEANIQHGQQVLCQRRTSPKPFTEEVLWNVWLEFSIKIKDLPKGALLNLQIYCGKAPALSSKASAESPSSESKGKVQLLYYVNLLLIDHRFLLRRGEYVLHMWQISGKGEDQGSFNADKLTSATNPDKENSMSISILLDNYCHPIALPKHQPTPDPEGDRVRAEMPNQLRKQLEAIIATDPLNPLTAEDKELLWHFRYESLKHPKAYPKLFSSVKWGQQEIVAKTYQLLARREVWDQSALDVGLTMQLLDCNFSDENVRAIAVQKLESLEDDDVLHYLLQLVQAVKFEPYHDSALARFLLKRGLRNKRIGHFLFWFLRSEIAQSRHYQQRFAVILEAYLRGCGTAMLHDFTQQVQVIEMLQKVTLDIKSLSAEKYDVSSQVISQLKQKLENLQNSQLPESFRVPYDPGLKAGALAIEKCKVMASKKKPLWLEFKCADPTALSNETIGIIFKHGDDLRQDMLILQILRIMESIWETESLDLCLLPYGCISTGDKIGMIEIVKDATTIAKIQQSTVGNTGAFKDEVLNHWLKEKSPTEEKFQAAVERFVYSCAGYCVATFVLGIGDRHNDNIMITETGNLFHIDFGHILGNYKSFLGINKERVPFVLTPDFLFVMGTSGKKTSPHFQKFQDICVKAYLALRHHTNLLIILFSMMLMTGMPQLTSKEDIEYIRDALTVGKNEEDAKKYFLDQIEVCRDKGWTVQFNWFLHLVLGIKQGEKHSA

[3] = Cytotoxicity against mouse L929 cells assessed as reduction in cell viability incubated for 24 hrs by CCK-8 assay; assay type: toxicity, cell-based
Jurkat = experiment: Cytotoxicity against human Jurkat cells assessed as reduction in cell viability incubated for 24 hrs by CCK-8 assay; assay type: functional, cell-based
RAW264.7 = experiment: Cytotoxicity against mouse RAW264.7 cells assessed as reduction in cell viability incubated for 24 hrs by CCK-8 assay; assay type: functional, cell-based; settings: RAW264.7, 24 h
THP-1 = experiment: Cytotoxicity against human THP-1 cells assessed as reduction in cell viability incubated for 24 hrs by CCK-8 assay; assay type: functional, cell-based; settings: THP-1, 24 h
MDA-MB-231 = experiment: Cytotoxicity against human MDA-MB-231 cells assessed as reduction in cell viability incubated for 24 hrs by CCK-8 assay; assay type: functional, cell-based; settings: MDA-MB-231, 24 h
4T1 = experiment: Cytotoxicity against mouse 4T1 cells assessed as reduction in cell viability incubated for 24 hrs by CCK-8 assay; assay type: functional, cell-based; settings: 4T1, 24 h
T47D = experiment: Cytotoxicity against human T47D cells assessed as reduction in cell viability incubated for 24 hrs by CCK-8 assay; assay type: functional, cell-based
A549 = experiment: Cytotoxicity against human A549 cells assessed as reduction in cell viability incubated for 24 hrs by CCK-8 assay; assay type: functional, cell-based; settings: A549, 24 h
HepG2 = experiment: Cytotoxicity against human HepG2 cells assessed as reduction in cell viability incubated for 24 hrs by CCK-8 assay; assay type: functional, cell-based; settings: HepG2, 24 h
B16-F10 = experiment: Cytotoxicity against mouse B16-F10 cells assessed as reduction in cell viability incubated for 24 hrs by CCK-8 assay; assay type: functional, cell-based; settings: B16-F10, 24 h
MCF7 = experiment: Cytotoxicity against human MCF7 cells assessed as reduction in cell viability incubated for 24 hrs by CCK-8 assay; assay type: functional, cell-based; settings: MCF7, 24 h
Huh-7 = experiment: Cytotoxicity against human Huh-7 cells assessed as reduction in cell viability incubated for 24 hrs by CCK-8 assay; assay type: functional, cell-based; settings: Huh-7, 24 h

| inhibition [1] | inhibition [2] | Compound | also measured |
| --- | --- | --- | --- |
| 25% | 25% | COc1ccc(C#Cc2cccc3cc(C(C)NC(=O)c4cnn5cccnc45)n(-c4ccccc4)c(=O)c23)cc1 (stereo not drawn) |  |
| 17% | 37% | CC(NC(=O)c1c(N)nn2cccnc12)c1cc2cccc(C#Cc3ccc(C(F)(F)F)cc3)c2c(=O)n1-c1ccccc1 (stereo not drawn) |  |
| 13% | 36% | CC(NC(=O)c1cnn2cccnc12)c1cc2cccc(Cl)c2c(=O)n1-c1ccccc1 (stereo not drawn) |  |
| 22% | 24% | CC(NC(=O)c1cnn2cccnc12)c1cc2cccc(C#Cc3ccccc3)c2c(=O)n1-c1ccccc1 (stereo not drawn) |  |
| 27% | 35% | COCC#Cc1cccc2cc(C(C)NC(=O)c3c(N)nn4cccnc34)n(-c3ccccc3)c(=O)c12 (stereo not drawn) |  |
|  | 27% | CC(NC(=O)c1cnn2cccnc12)c1cc2cccc(C#Cc3ccc(C(F)(F)F)cc3)c2c(=O)n1-c1ccccc1 (stereo not drawn) | inhibition ([1]; filed as antagonist): 40% |
| 25% | 38% | CC(NC(=O)c1c(N)nn2cccnc12)c1cc2cccc(C#CCN)c2c(=O)n1-c1ccccc1 (stereo not drawn) |  |
| 29% | 24% | CCCC#Cc1cccc2cc(C(C)NC(=O)c3c(N)nn4cccnc34)n(-c3ccccc3)c(=O)c12 (stereo not drawn) |  |
| 19% | 31% | COc1ccc(C#Cc2cccc3cc(C(C)NC(=O)c4c(N)nn5cccnc45)n(-c4ccccc4)c(=O)c23)cc1 (stereo not drawn) |  |
| 17% | 33% | CC(NC(=O)c1c(N)nn2cccnc12)c1cc2cccc(C#CC3CC3)c2c(=O)n1-c1ccccc1 (stereo not drawn) |  |
| 27% | 22% | CCCc1ccc(C#Cc2cccc3cc(C(C)NC(=O)c4c(N)nn5cccnc45)n(-c4ccccc4)c(=O)c23)cc1 (stereo not drawn) |  |
| 14% |  | CC(Nc1ncnc2[nH]cnc12)c1cc2cccc(C#Cc3ccc(C(F)(F)F)cc3)c2c(=O)n1-c1ccccc1 (stereo not drawn) | inhibition ([2]; filed as antagonist): 44% |
| 28% | 22% | CC(NC(=O)c1cnn2cccnc12)c1cc2cccc(C#Cc3ccc(N(C)C)cc3)c2c(=O)n1-c1ccccc1 (stereo not drawn) |  |
| 18% | 28% | CC(NC(=O)c1c(N)nn2cccnc12)c1cc2cccc(C#Cc3ccc(N(C)C)cc3)c2c(=O)n1-c1ccccc1 (stereo not drawn) |  |
| 25% | 27% | CC(NC(=O)c1c(N)nn2cccnc12)c1cc2cccc(C#Cc3ccccc3)c2c(=O)n1-c1ccccc1 (stereo not drawn) |  |

The remaining lines, values behind:

| Compound | inhibition [1] | inhibition [2] | also measured |
| --- | --- | --- | --- |
| COCC#Cc1cccc2cc(C(C)Nc3ncnc4[nH]cnc34)n(-c3ccccc3)c(=O)c12 (stereo not drawn) | 26% |  | inhibition ([2]; filed as antagonist): 41% |
| CC(NC(=O)c1cncc2ccccc12)c1cc2cccc(Cl)c2c(=O)n1-c1ccccc1 (stereo not drawn) | 3% | 2% |  |
| CCCCC#Cc1cccc2cc(C(C)Nc3ncnc4[nH]cnc34)n(-c3ccccc3)c(=O)c12 (stereo not drawn) | 21% | 33% |  |
| CC(Nc1ncnc2c1ncn2C)c1cc2cccc(Cl)c2c(=O)n1-c1ccccc1 (stereo not drawn) | 28% | 35% |  |
| CC(Nc1ncnc2[nH]cnc12)c1cc2cccc(C#Cc3ccccc3)c2c(=O)n1-c1ccccc1 (stereo not drawn) | 23% |  | inhibition ([2]; filed as antagonist): 51% |
| CC(NC(=O)c1cccc2c1OCCO2)c1cc2cccc(Cl)c2c(=O)n1-c1ccccc1 (stereo not drawn) | 32% | 9% |  |
| CC(NC(=O)c1cncc(N2CCOCC2)n1)c1cc2cccc(Cl)c2c(=O)n1-c1ccccc1 (stereo not drawn) | 14% | 13% |  |
| C[C@H](Nc1ncnc2[nH]cnc12)c1cc2cccc(Cl)c2c(=O)n1-c1ccccc1 [DUVELISIB] |  |  | IC50 at 24 h [3]: > 100 µM |
| CC(Nc1ncnc2[nH]cnc12)c1cc2cccc(C#CC3CC3)c2c(=O)n1-c1ccccc1 (stereo not drawn) |  |  | inhibition ([1]; filed as antagonist): 44%; inhibition ([2]; filed as antagonist): 43% |
| CC(Nc1ncnc2[nH]cnc12)c1cc2cccc(C#Cc3ccc(N(C)C)cc3)c2c(=O)n1-c1ccccc1 (stereo not drawn) | 14% |  | inhibition ([2]; filed as antagonist): 46% |
| CCCc1ccc(C#Cc2cccc3cc(C(C)Nc4ncnc5[nH]cnc45)n(-c4ccccc4)c(=O)c23)cc1 (stereo not drawn) | 8% | 13% |  |
| C[C@H](Nc1ncnc2nc[nH]c12)c1cc2cccc(Cl)c2c(=O)n1-c1ccccc1 [DUVELISIB] |  | 37% | inhibition ([1]; filed as antagonist): 66.7%; IC50 (Jurkat): 3.17 µM; IC50 (RAW264.7): 13.2 µM; IC50 (THP-1): 14.9 µM; IC50 (MDA-MB-231): 9.76 µM; IC50 (4T1): 22.9 µM; IC50 (T47D): > 100 µM; IC50 (A549): > 100 µM; IC50 (HepG2): > 100 µM; IC50 (B16-F10): > 100 µM; IC50 (MCF7): > 100 µM; IC50 (Huh-7): 6.57 µM |
| CC(NC(=O)c1ccncc1N)c1cc2cccc(Cl)c2c(=O)n1-c1ccccc1 (stereo not drawn) | 24% | 33% |  |
| CC(NC(=O)c1ccc2occc2c1)c1cc2cccc(Cl)c2c(=O)n1-c1ccccc1 (stereo not drawn) | 8% | 11% |  |
